Consider 88 compounds from PubChem BioAssay AID463074 (Broad Institute, 2010).

Calls of active or inactive are those of the source.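 How the source made its calls: active means AC50 no more than tenfold above the top dose tested, or full inhibition at every dose with a flat fit (cut at about 19 µM in these data); inconclusive means flat curve fit with inhibition between 30% and 70%, or poor fit; inactive means AC50 more than tenfold above the top dose tested.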

The subject of the test is HMLE_sh_eGFP viability, CellTiter-Glo luminescence, 72 h. As to the kind of experiment: viability loss of HMLE_sh_eGFP cells – cell-based, luminescence, counter-screen for HMLE_sh_ECad selective toxicity project, dose response (AID 463074).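 Further: counterscreen control line to flag general toxicity for the HMLE_sh_ECad screen; potency for loss of viability as luminescence drops below DMSO wells.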 In general terms: Counterscreens check selectivity or assay interference.
In general, AC50 refers to the concentration giving half of the maximal activity seen. As to `O=C1c2cccc3cccc(c23)C(=O)N1CCN1CCN(CC(O)COc2ccc3ccccc3c2)CC1` (stereo not drawn), the AC50 was 6.81 µM.
Consider `COc1ccc(Br)cc1C(C[N+](=O)[O-])c1c(N)n(C)c(=O)n(C)c1=O` (stereo not drawn), for which the AC50 was 4.93 µM.
The result for `CCN(CC)CCNc1ncnc2c1sc1nc(N3CCOCC3)c3c(c12)CC(C)(C)SC3` reads 6.99 µM; that for `Cc1ccccc1N1CCN(C(=O)c2ccc(Oc3ccc(C(F)(F)F)cn3)cc2)CC1`, 4.66 µM; that for `O=C(Nc1ccc2c(c1)OCCO2)C(=O)c1c[nH]c2ccccc12`, 1.85 µM.
As to `O=C(O)c1cccc(N/N=C(\N=Nc2ccccc2)c2ccccc2)c1`, the AC50 is 4.25 µM.
The result for `CNC(=O)c1cc(Oc2ccc(NC(=O)Nc3ccc(Cl)c(C(F)(F)F)c3)cc2)ccn1` reads 2.39 µM; that for `COc1cc(/C=N/N(c2ccccc2)c2ccccc2)ccc1O`, 6.34 µM; that for `C[C@H]1CN([C@@H](C)CO)C(=O)Cc2cc(NC(=O)CCC(F)(F)F)ccc2O[C@H]1CN(C)Cc1ccc(-c2ccccc2)cc1`, 6.9 µM.
On to `C=CCn1c(=O)c(C(=O)NCCc2ccccc2)c(O)c2ccccc21`, for which the AC50 was 5.77 µM.
For the compound `CCCCCCSc1cccc(-c2nc3cc(C)ccn3c2NC2CCCCC2)c1`, the AC50 is 9.77 µM.
The value for `CC1(C)C=Cc2c(c3c(c4c(=O)c(-c5ccc(O)cc5)coc24)OC(C)(C)CC3)O1` was 7.5 µM; that for `Cc1cccc(-n2cc(-c3ccccc3)c3c(N4CCOCC4)ncnc32)c1` was 4.59 µM; that for `Cc1ccc(-c2cc(-c3ccccc3C)[nH]n2)c(O)c1` was 8.64 µM.
`O=c1c2ccccc2nc(/C=C/c2ccccc2F)n1-c1ccccc1O`: the AC50 was 6.44 µM.
The result for `CCOc1cc(/C=N/O)cc(Br)c1OCc1ccc(Cl)cc1` reads 5.69 µM; that for `CC1(C)C[C@@H]2C[C@@](C)(CN2C(=O)c2cc(COc3cccc(C(F)(F)F)c3)on2)C1`, 4.8 µM; that for `C[C@@H](CSc1ccc(Br)cc1)CN1CC[C@H](C(C)(C)C)CCC1=O`, 3.35 µM.
As to `COc1cc(CNCCc2c[nH]c3ccccc23)ccc1OCc1ccc(F)cc1`, the AC50 is 4.2 µM.
Turning to `Cc1cccc(Nc2nc(N)c([N+](=O)[O-])c(N3CC(C)CC(C)C3)n2)c1` (stereo not drawn), the AC50 is 6.75 µM.
For the compound `O=C(CN(c1ccc(Cl)cc1)S(=O)(=O)c1ccc(Cl)c([N+](=O)[O-])c1)NCCc1ccc(F)cc1`, the AC50 is 3.81 µM.
Regarding `CN(/N=C/c1cc(Cl)cc(Cl)c1O)C(=S)NC(C)(C)C`, the AC50 is 2.75 µM.
Take `Cc1[nH]n(-c2ncc(-c3ccc(Cl)cc3)s2)c(=O)c1C(c1ccc(Cl)cc1)C(C#N)C#N` (stereo not drawn): the AC50 is 3.86 µM.
The result for `CC1=NN(c2nc(-c3ccc(F)cc3)cs2)C(=O)C1` reads 13.4 µM; that for `Cc1ccc(C(=O)Cn2nnc3c(sc4nc5c(c(-c6ccccc6)c43)CCC5)c2=O)cc1`, 0.687 µM; that for `CCn1c(C)c(C)c2cc(C(=O)N3CCN(c4cccc(C)c4C)CC3)ccc21`, 5.44 µM.
The value for `O=C(CSc1nc2nc(-c3cccs3)cc(C(F)(F)F)c2c(=O)[nH]1)Nc1ccc(F)c(F)c1` was 2.56 µM; that for `C[C@]12CC[C@H](O)C[C@H]1CC[C@@H]1[C@@H]2C[C@@H](O)[C@]2(C)[C@@H](C3=CC(=O)OC3)CC[C@]12O` was 0.654 µM.
As to `O=C1[C@H]2CCCC[C@H]2C(=O)N1CCCCN1CCN(c2nsc3ccccc23)CC1`, the AC50 was 4.51 µM.
The value for `Cc1cc(-c2ccccc2)nc(N/N=C/c2ccc(O)cc2O)n1` was 7.96 µM.
Take `O=c1cc(CNc2cc(C(F)(F)F)cc(C(F)(F)F)c2)nc2sccn12`: the AC50 was 3.39 µM.
The value for `O=C1C=C(c2ccc(Cl)c(C(F)(F)F)c2)C[C@@H](c2ccc(Cl)cc2)C1` was 3.52 µM; that for `COc1cccc(-c2sc3ccc(OC)cc3c2C#CC2(O)CCCCC2)c1` was 7.25 µM; that for `O=[N+]([O-])c1cccnc1N1CCC(c2cc(-c3cccc(C(F)(F)F)c3)n[nH]2)CC1` was 3.56 µM.
The value for `Cc1ccc(Nc2cc(C)nc(NCc3ccccc3)n2)cc1` was 4.86 µM; that for `O=C(COC(=O)c1c2c(nc3ccccc13)/C(=C\c1cccs1)CCC2)Nc1ccccc1` was 2.77 µM; that for `CCCn1c(=O)c(C(=O)NNS(=O)(=O)c2ccc(Cl)cc2)c(O)c2ccccc21` was 2.03 µM.
Consider `O=C(NC(=S)Nc1ccc(N2CCCCC2)c(Cl)c1)c1ccc2c(c1)OCCO2`, for which the AC50 is 3.58 µM.
Take `C/C(=N\NC(=O)c1nnn(-c2nonc2N)c1CN1CCc2ccccc21)c1ccccc1O`: the AC50 was 3.21 µM.
For the compound `Cc1cc(C)n(Cc2ccc(NC(=O)c3ccc(COc4ccccc4Br)cc3)cc2)n1`, the AC50 is 3.03 µM.
Regarding `COc1ccccc1Nc1ccc(NC(=O)c2cccc([N+](=O)[O-])c2C)cc1`, the AC50 is 3.82 µM.
In the case of `O=C(CN1CCCc2ccccc21)N/N=C/c1c(O)ccc2ccccc12`, the AC50 was 2.7 µM.
For `COc1ccc(N=N/C(=C\O)C(=O)c2cccs2)cc1`, the AC50 was 5.35 µM.
Take `CCN(CC)CCSc1nnc2c3ccccc3n(Cc3ccccc3)c2n1`: the AC50 was 2.47 µM.
The result for `Cc1c(C2(O)CCCCC2)[nH]c2cc(C(F)(F)F)ccc12` reads 5.83 µM; that for `CCN(CC)S(=O)(=O)c1ccc(N/N=C/c2cc(OC)ccc2O)nc1`, 3.85 µM; that for `COCCNC(=O)CN(C(=O)CCC(=O)Nc1ccccn1)c1ccc(C)cc1`, > 19.5 µM (inactive).
The value for `O=C(NNc1ccccc1Br)C(=O)n1ccc2ccccc21` was 8.69 µM; that for `Clc1ccc(-c2ccc(/C=N/Nc3cc(N4CCOCC4)nc(N4CCOCC4)n3)o2)cc1` was 4.24 µM.
On to `Cc1cc(N2CCN(C)CC2)nc2ccc(NC(=S)NCCC(C)C)cc12`, for which the AC50 was 7.91 µM.
On to `O=C1NC[C@@H](Cc2cccc3ccccc23)N(CCCCC2CCCCC2)C1=O`, for which the AC50 is 7.05 µM.
Consider `O=C(c1cnn2c1NC(c1ccc(Br)cc1)CC2C(F)(F)F)N1CCN2CCCC2C1` (stereo not drawn), for which the AC50 is 4.46 µM.
Regarding `Cc1ccc(OCC(O)Cn2c3ccccc3c3ccccc32)cc1` (stereo not drawn), the AC50 is 6.78 µM.
`Oc1ccc(-c2cc(-c3ccc(O)cc3)nc(-c3ccccc3)n2)cc1`: the AC50 was 3.77 µM.
Turning to `CCCCn1c(-c2cccc(C)c2)nc2cc3[nH]c(=O)c(C(C)C)nc3cc21`, the AC50 is 4.64 µM.
The value for `O=C(CNC(=O)C1COc2ccccc2O1)N/N=C/c1ccc(O)cc1O` (stereo not drawn) was 5.21 µM.
The value for `O=C(Nc1ccc(Oc2c(F)c(F)c(F)c(F)c2F)cc1)OC1CCN2Cc3ccccc3N=C12` (stereo not drawn) was 1.21 µM; that for `COc1cc(OC)cc(C(=O)NCCNc2nc3cc(C)cc(C)c3cc2C#N)c1` was > 19.5 µM (inactive); that for `Cc1ccc(C(C)C)c(OCc2nn(CC(=O)c3ccc(OC(F)F)cc3)c3[n+]2CCCCC3)c1` was 4.17 µM.
The value for `CC(C)c1nc2sc3ccccc3c(=O)c2c(=O)n1Cc1ccccc1` was 6.29 µM.
For the compound `COc1ccc(-c2oc3c4c(cc(OC)c3c(=O)c2CC=C(C)C)OC(C)(C)C=C4)c(OC)c1`, the AC50 was 7.18 µM.
`COc1ccc2sc(-c3ccccc3OC)c(-c3ccc(O)cc3)c2c1`: the AC50 was 6.71 µM.
Turning to `O=C(NCc1ccco1)c1cc(-c2ccc3c(c2)OCO3)on1`, the AC50 was 0.973 µM.
The value for `Cc1cccc(C(=O)N/N=C/c2ccc(OC3CSC3)cc2)c1` was 2.73 µM; that for `CC(=O)Nc1ccc(C2CC(c3ccc(Cl)cc3)=NN2c2ccccc2)cc1` (stereo not drawn) was 2.13 µM; that for `COc1ccc2sc(-c3ccc(SC)cc3)c(C#CC(C)(C)O)c2c1` was 6.66 µM.
For the compound `CC(C)(C)c1ccc(OCC(=O)N/N=C/c2cc(Br)ccc2OC(=O)c2ccco2)cc1`, the AC50 is 3.61 µM.
On to `C=C(C)COc1ccc(-c2n[nH]c(C)c2-c2ccc(OC)cc2)c(O)c1`, for which the AC50 was 4.47 µM.
As to `CC(C)C[C@@H](CO)N(Cc1ccccc1)S(=O)(=O)N(Cc1ccccc1)[C@@H](CO)CC(C)C`, the AC50 is 3.87 µM.
For `O=C(NC1CCCCC1)C(c1cccnc1)N(C(=O)CCl)c1ccc(F)cc1` (stereo not drawn), the AC50 is 3.47 µM.
`COc1cc(C#Cc2c(-c3cncn3C)n(C)c3ccc(-c4ccc(OC)nc4)cc23)cc(OC)c1`: the AC50 was 6.61 µM.
In the case of `CCN(Cc1ccccc1)S(=O)(=O)c1ccc(C(=O)N(CCCN(C)C)c2nc3cc(C)cc(C)c3s2)cc1`, the AC50 was 3.75 µM.
Take `COCCNC(=O)c1c[nH]c2ccc(S(=O)(=O)N3CCc4ccccc43)cc2c1=O`: the AC50 was 5.53 µM.
Take `Cc1nn(Cc2ccc(Cl)c(Cl)c2)c(C)c1NC(=O)c1cc(-c2ccc3c(c2)OCO3)on1`: the AC50 is 1.56 µM.
Take `COc1cccc(N2CCN(Cc3nc4scc(-c5ccccc5)c4c(=O)[nH]3)CC2)c1`: the AC50 is 2.59 µM.
`COc1ccc(N=C2NN=C(c3c(C)[nH]c4ccccc34)CS2)cc1`: the AC50 was 7.77 µM.
In the case of `CCCCC[C@@H]1C=C(C(=O)O)[C@H](c2ccc(Cl)c(Cl)c2)N1S(=O)(=O)c1ccc(C)cc1`, the AC50 is 5.05 µM.
Take `CC1(C)CC[C@]2(C(=O)O)CC[C@]3(C)C(=CC[C@@H]4[C@@]5(C)CC[C@H](O[C@@H]6O[C@H](C(=O)O)[C@@H](O)[C@H](O[C@@H]7OC[C@H](O)[C@H](O)[C@H]7O)[C@H]6O)C(C)(C)[C@@H]5CC[C@]43C)[C@@H]2C1`: the AC50 was 5.14 µM.
As to `CCc1c(C)sc2nc(C(C)C)nc(SCC(=O)N3CCc4ccccc4C3)c12`, the AC50 is 4.22 µM.
Take `C=CCn1c(SCC(=O)c2[nH]c(C)c(C(=O)OCC)c2C)nc2scc(-c3ccc(OC)c(OC)c3)c2c1=O`: the AC50 is 3.99 µM.
The result for `O=C(Nc1ccn(Cc2ccccc2F)n1)c1ccc(COc2ccccc2Cl)cc1` reads 3.52 µM; that for `O=C(NCCN1CCCC1)c1ccc2c(c1)N(Cc1cccc(Cl)c1)C(=O)c1ccccc1S2(=O)=O`, > 19.5 µM (inactive); that for `COc1ccc(-c2sc3ccc(N4CCOCC4)cc3c2C#CC(C)(C)O)cc1`, 1.3 µM.
As for `Cc1ccc(N/N=C/c2cccnc2)cc1`, the AC50 was 6.14 µM.
The result for `COc1ccccc1OCCN1CSC(=S)N(C)C1` reads 5.24 µM; that for `NC(=O)CC(NC(=O)c1ccc(Br)cc1)c1ccc(N2CCCCCCC2)c([N+](=O)[O-])c1` (stereo not drawn), 7.85 µM.
Consider `CCc1ccc(N2C(=O)NC(=O)/C(=C\C=C\c3ccco3)C2=O)cc1`, for which the AC50 is 3.72 µM.
Consider `O=C(Nc1cnn(C23CC4CC(CC(C4)C2)C3)c1)c1cc(-c2ccccc2)on1`, for which the AC50 is 11.4 µM.
